{
  "source": "patent US9796733B2",
  "about": "“Imidazo-pyrazine derivatives useful as soluble guanylate cyclase activators” (Merck Sharp & Dohme Corp., priority 2014, dated 2017)",
  "molecular_target": "T1, sGC α1/β1 heterodimer (Homo sapiens, UniProt Q02108+Q02153)",
  "T1 construct": "expressed in transfected cells; host or cells: CHO-K1 (clone #7, CHO-K1/sGC)",
  "T1 sequence (Q02108 1-690)": "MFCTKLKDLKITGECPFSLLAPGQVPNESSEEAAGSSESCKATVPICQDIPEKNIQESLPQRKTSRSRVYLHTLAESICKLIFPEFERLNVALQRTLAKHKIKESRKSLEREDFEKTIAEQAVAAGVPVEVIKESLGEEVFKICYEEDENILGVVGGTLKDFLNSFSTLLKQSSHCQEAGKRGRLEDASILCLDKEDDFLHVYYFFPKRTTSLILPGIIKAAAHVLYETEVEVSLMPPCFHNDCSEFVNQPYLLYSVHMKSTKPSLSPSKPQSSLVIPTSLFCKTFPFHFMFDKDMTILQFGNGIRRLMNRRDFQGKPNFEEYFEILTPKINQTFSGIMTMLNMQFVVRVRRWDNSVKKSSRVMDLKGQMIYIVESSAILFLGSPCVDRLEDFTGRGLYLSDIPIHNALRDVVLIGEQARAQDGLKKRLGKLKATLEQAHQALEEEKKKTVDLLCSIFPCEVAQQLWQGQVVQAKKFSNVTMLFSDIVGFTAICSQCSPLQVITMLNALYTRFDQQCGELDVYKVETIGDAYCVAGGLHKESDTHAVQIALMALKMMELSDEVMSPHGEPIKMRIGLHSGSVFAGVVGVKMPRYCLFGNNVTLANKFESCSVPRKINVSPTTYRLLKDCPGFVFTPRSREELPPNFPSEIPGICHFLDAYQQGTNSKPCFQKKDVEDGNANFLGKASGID",
  "T1 sequence (Q02153 1-619)": "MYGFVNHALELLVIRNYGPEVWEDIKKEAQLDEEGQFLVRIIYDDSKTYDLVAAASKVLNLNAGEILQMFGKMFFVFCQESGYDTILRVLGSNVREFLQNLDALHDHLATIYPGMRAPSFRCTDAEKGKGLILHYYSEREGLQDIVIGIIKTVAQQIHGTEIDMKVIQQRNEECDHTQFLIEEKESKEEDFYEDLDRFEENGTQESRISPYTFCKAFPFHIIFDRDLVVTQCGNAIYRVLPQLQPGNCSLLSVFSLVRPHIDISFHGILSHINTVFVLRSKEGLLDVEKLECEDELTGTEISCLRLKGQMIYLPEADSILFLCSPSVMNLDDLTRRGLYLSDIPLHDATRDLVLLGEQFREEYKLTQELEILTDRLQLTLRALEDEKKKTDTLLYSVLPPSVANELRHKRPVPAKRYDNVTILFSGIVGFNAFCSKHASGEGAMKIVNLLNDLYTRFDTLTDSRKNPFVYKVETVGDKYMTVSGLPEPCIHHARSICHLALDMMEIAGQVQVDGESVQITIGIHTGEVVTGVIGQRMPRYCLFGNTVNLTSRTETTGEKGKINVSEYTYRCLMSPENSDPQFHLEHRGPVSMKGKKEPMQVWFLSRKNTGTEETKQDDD",
  "assay": "Cell-based sGC functional assay (CASA assay): cGMP generation in CHO-K1/sGC cells, HTRF detection",
  "settings": "for EC50: inflection point (IP) of cGMP generation in CHO-K1/sGC cells, 4P fit, activity expressed as percentage of Compound A; for % Act.: percent activation relative to standard Compound A in CHO-K1/sGC cells; for Emax: CHO-K1, percent activation relative to standard Compound A in CHO-K1/sGC cells, read-out: % Act.",
  "summary_of_the_method": "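Stable CHO-K1/sGC cells in EBSS buffer with 5 mM MgCl2, 0.05% BSA and 0.5 mM IBMX were incubated with compound (2.5% DMSO final) ±1 μM DETA-NO for 1 hr at 37° C. cGMP was measured by HTRF. Activation is expressed as % of reference HDA Compound A maximum, with IP and max fold induction from a 4P fit.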",
  "data": [
    {"smiles": "CC1(c2ccc(F)cc2)C(=O)Nc2nc(-c3cn4ccnc4c(Cc4cccc(F)c4)n3)nc(N)c21", "note": "(single isomer, unassigned) [Example 90B, 4-amino-2-(8-(3-fluorobenzyl)imidazo[1,2-a]pyrazin-6-yl)-5-(4-fluorophenyl)-5-methyl-5H-pyrrolo[2,3-d]pyrimidin-6(7H)-one]", "values": [
      {"measurement": "EC50", "value": 140, "unit": "nM"},
      {"measurement": "% Act.", "value": 129, "unit": "%"}
    ]},
    {"smiles": "CC1(c2ccc(F)cc2)C(=O)Nc2nc(-c3cn4ccnc4c(C4CC4)n3)nc(N)c21", "note": "(stereo not shown) [Example 28A, 4-amino-2-(8-cyclopropylimidazo[1,2-a]pyrazin-6-yl)-5-(4-fluorophenyl)-5-methyl-5H-pyrrolo[2,3-d]pyrimidin-6(7H)-one]", "values": [
      {"measurement": "Emax", "value": 82, "unit": "%"},
      {"measurement": "EC50", "value": 652, "unit": "nM"}
    ]},
    {"smiles": "Nc1nc(-c2cn3ccnc3c(Cc3ccccc3)n2)nc2c1C(C(=O)NC1CC1)(C1CC1)C(=O)N2", "note": "(single isomer, unassigned) [Example 40A, 4-amino-2-(8-benzylimidazo[1,2-a]pyrazin-6-yl)-N,5-dicyclopropyl-6-oxo-6,7-dihydro-5H-pyrrolo[2,3-d]pyrimidine-5-carboxamide]", "values": [
      {"measurement": "EC50", "value": 53, "unit": "nM"},
      {"measurement": "% Act.", "value": 138, "unit": "%"}
    ]},
    {"smiles": "CC1(c2ccc(F)cc2)C(=O)Nc2nc(-c3cn4ccnc4c(Cc4cccc(Cl)c4)n3)nc(N)c21", "note": "(stereo not shown) [Example 94A, 4-amino-2-(8-(3-chlorobenzyl)imidazo[1,2-a]pyrazin-6-yl)-5-(4-fluorophenyl)-5-methyl-5H-pyrrolo[2,3-d]pyrimidin-6(7H)-one]", "values": [
      {"measurement": "Emax", "value": 108, "unit": "%"},
      {"measurement": "EC50", "value": 5, "unit": "nM"}
    ]},
    {"smiles": "CC(C)C1(C)C(=O)Nc2nc(-c3cn4ccnc4c(Cc4ccccc4)n3)nc(N)c21", "note": "(stereo not shown) [Example 80A, 4-amino-2-(8-benzylimidazo[1,2-a]pyrazin-6-yl)-5-isopropyl-5-methyl-5H-pyrrolo[2,3-d]pyrimidin-6(7H)-one]", "values": [
      {"measurement": "Emax", "value": 125, "unit": "%"},
      {"measurement": "EC50", "value": 66, "unit": "nM"}
    ]},
    {"smiles": "Nc1nc(-c2cn3ccnc3c(CCCC(F)(F)F)n2)nc2c1C(c1cccc(C(F)(F)F)n1)(C1CC1)C(=O)N2", "note": "(single isomer, unassigned) [Example 368B, 4-amino-5-cyclopropyl-2-(8-(4,4,4-trifluorobutyl)imidazo[1,2-a]pyrazin-6-yl)-5-(6-(trifluoromethyl)pyridin-2-yl)-5H-pyrrolo[2,3-d]pyrimidin-6(7H)-one]", "values": [
      {"measurement": "Emax", "value": 151, "unit": "%"},
      {"measurement": "EC50", "value": 148, "unit": "nM"}
    ]},
    {"smiles": "CCOC(=O)CCNc1nc(-c2cn3ccnc3c(CCC(F)(F)F)n2)nc2c1C(C)(c1ccc(Cl)cc1)C(=O)N2", "note": "(stereo not shown) [Example 298A, ethyl 3-((5-(4-chlorophenyl)-5-methyl-6-oxo-2-(8-(3,3,3-trifluoropropyl)imidazo[1,2-a]pyrazin-6-yl)-6,7-dihydro-5H-pyrrolo[2,3-d]pyrimidin-4-yl)amino)propanoate]", "values": [
      {"measurement": "Emax", "value": 114, "unit": "%"},
      {"measurement": "EC50", "value": 121, "unit": "nM"}
    ]},
    {"smiles": "CC1(c2ccccc2)C(=O)Nc2nc(-c3cn4c(Br)cnc4c(CCC(F)(F)F)n3)nc(N)c21", "note": "(stereo not shown) [Example 265B, 4-amino-2-(3-bromo-8-(3,3,3-trifluoropropyl)imidazo[1,2-a]pyrazin-6-yl)-5-methyl-5-phenyl-5H-pyrrolo[2,3-d]pyrimidin-6(7H)-one]", "values": [
      {"measurement": "Emax", "value": 121, "unit": "%"},
      {"measurement": "EC50", "value": 648, "unit": "nM"}
    ]},
    {"smiles": "CC1(c2ccc(F)cc2)C(=O)Nc2nc(-c3cn4ccnc4c(CCC(F)(F)C(F)(F)F)n3)nc(N3CCSCC3)c21", "note": "(stereo not shown) [Example 300A, 5-(4-fluorophenyl)-5-methyl-2-(8-(3,3,4,4,4-pentafluorobutyl)imidazo[1,2-a]pyrazin-6-yl)-4-thiomorpholine-5H-pyrrolo[2,3-d]pyrimidin-6(7H)-one]", "values": [
      {"measurement": "Emax", "value": 136, "unit": "%"},
      {"measurement": "EC50", "value": 492, "unit": "nM"}
    ]},
    {"smiles": "CC1(c2ccc(F)cc2)C(=O)Nc2nc(-c3cn4ccnc4c(CCC(F)(F)C(F)(F)F)n3)nc(N3CCOCC3)c21", "note": "(stereo not shown) [Example 310A, 5-(4-fluorophenyl)-5-methyl-4-morpholino-2-(8-(3,3,4,4,4-pentafluorobutyl)imidazo[1,2-a]pyrazin-6-yl)-5H-pyrrolo[2,3-d]pyrimidin-6(7H)-one]", "values": [
      {"measurement": "Emax", "value": 77, "unit": "%"},
      {"measurement": "EC50", "value": 45, "unit": "nM"}
    ]},
    {"smiles": "CC(C)Cc1nc(-c2nc(N)c3c(n2)NC(=O)C3(C)c2ccc(OC(F)(F)F)cc2)cn2ccnc12", "note": "(stereo not shown) [Example 25A, 4-amino-2-(8-isobutylimidazo[1,2-a]pyrazin-6-yl)-5-methyl-5-(4-(trifluoromethoxy)phenyl)-5H-pyrrolo[2,3-d]pyrimidin-6(7H)-one]", "values": [
      {"measurement": "Emax", "value": 87, "unit": "%"},
      {"measurement": "EC50", "value": 324, "unit": "nM"}
    ]},
    {"smiles": "COCCNc1nc(-c2cn3ccnc3c(CCC(F)(F)C(F)(F)F)n2)nc2c1C(C)(c1ccc(F)cn1)C(=O)N2", "note": "(stereo not shown) [Example 293B, 5-(5-fluoropyridin-2-yl)-4-((2-methoxyethyl)amino)-5-methyl-2-(8-(3,3,4,4,4-pentafluorobutyl)imidazo[1,2-a]pyrazin-6-yl)-5H-pyrrolo[2,3-d]pyrimidin-6(7H)-one]", "values": [
      {"measurement": "Emax", "value": 107, "unit": "%"},
      {"measurement": "EC50", "value": 509, "unit": "nM"}
    ]},
    {"smiles": "CN(C)c1nc(-c2cn3ccnc3cn2)nc2c1C(C)(c1ccc(Cl)cc1)C(=O)N2", "note": "(stereo not shown) [Example 312A]", "values": [
      {"measurement": "Emax", "value": 93, "unit": "%"},
      {"measurement": "EC50", "value": 25, "unit": "nM"}
    ]},
    {"smiles": "CC1(c2ccc(F)cc2)C(=O)Nc2nc(-c3cn4ccnc4c(Cc4ccc(F)c(F)c4)n3)nc(N)c21", "note": "(stereo not shown) [Example 96A, 4-amino-2-(8-(3,4-difluorobenzyl)imidazo[1,2-a]pyrazin-6-yl)-5-(4-fluorophenyl)-5-methyl-5H-pyrrolo[2,3-d]pyrimidin-6(7H)-one]", "values": [
      {"measurement": "Emax", "value": 106, "unit": "%"},
      {"measurement": "EC50", "value": 4, "unit": "nM"}
    ]},
    {"smiles": "CC1(c2ccc(OC(F)(F)F)cc2)C(=O)Nc2nc(-c3cn4ccnc4cn3)nc(N)c21", "note": "(stereo not shown) [Example 145A, 4-amino-2-(imidazo[1,2-a]pyrazin-6-yl)-5-methyl-5-(4-(trifluoromethoxy)phenyl)-5H-pyrrolo[2,3-d]pyrimidin-6(7H)-one]", "values": [
      {"measurement": "Emax", "value": 96, "unit": "%"},
      {"measurement": "EC50", "value": 385, "unit": "nM"}
    ]},
    {"smiles": "CC1(C(=O)NC2CC2)C(=O)Nc2nc(-c3cn4cc(C(F)(F)F)nc4c(Cc4ccccc4F)n3)nc(N)c21", "note": "(stereo not shown) [Example 47B, 4-amino-N-cyclopropyl-2-(8-(2-fluorobenzyl)-2-(trifluoromethyl)imidazo[1,2-a]pyrazin-6-yl)-5-methyl-6-oxo-6,7-dihydro-5H-pyrrolo[2,3-d]pyrimidine-5-carboxamide]", "values": [
      {"measurement": "Emax", "value": 118, "unit": "%"},
      {"measurement": "EC50", "value": 735, "unit": "nM"}
    ]},
    {"smiles": "CCOc1ccc(C2(C)C(=O)Nc3nc(-c4cn5ccnc5c(CCC(F)(F)C(F)(F)F)n4)nc(N)c32)nc1", "note": "(stereo not shown) [Example 224A, 4-amino-5-(5-ethoxypyridin-2-yl)-5-methyl-2-(8-(3,3,4,4,4-pentafluorobutyl)imidazo [1,2-a]pyrazin-6-yl)-5H-pyrrolo[2,3-d]pyrimidin-6(7H)-one]", "values": [
      {"measurement": "Emax", "value": 77, "unit": "%"},
      {"measurement": "EC50", "value": 153, "unit": "nM"}
    ]},
    {"smiles": "CN(C)c1nc(-c2cn3ccnc3c(CCC(F)(F)C(F)(F)F)n2)nc2c1C(C)(c1ccc(F)cn1)C(=O)N2", "note": "(stereo not shown) [Example 291B, 4-(dimethylamino)-5-(5-fluoropyridin-2-yl)-5-methyl-2-(8-(3,3,4,4,4-pentafluorobutyl)imidazo[1,2-a]pyrazin-6-yl)-5H-pyrrolo[2,3-d]pyrimidin-6(7H)-one]", "values": [
      {"measurement": "Emax", "value": 126, "unit": "%"},
      {"measurement": "EC50", "value": 786, "unit": "nM"}
    ]},
    {"smiles": "Nc1nc(-c2cn3cc(C(F)(F)F)nc3c(Cc3ccc(F)cc3)n2)nc2c1C(C(=O)NC1CC1)(C1CC1)C(=O)N2", "note": "(stereo not shown) [Example 50B, 4-amino-N,5-dicyclopropyl-2-(8-(4-fluorobenzyl)-2-(trifluoromethyl)imidazo[1,2-a]pyrazin-6-yl)-6-oxo-6,7-dihydro-5H-pyrrolo[2,3-d]pyrimidine-5-carboxamide]", "values": [
      {"measurement": "Emax", "value": 86, "unit": "%"},
      {"measurement": "EC50", "value": 829, "unit": "nM"}
    ]},
    {"smiles": "CC1(c2ccc(Cl)cc2Cl)C(=O)Nc2nc(-c3cn4ccnc4c(CCC(F)(F)F)n3)nc(N)c21", "note": "(stereo not shown) [Example 187A, 4-amino-5-(2,4-dichlorophenyl)-5-methyl-2-(8-(3,3,3-trifluoropropyl)imidazo[1,2-a]pyrazin-6-yl)-5H-pyrrolo[2,3-d]pyrimidin-6(7H)-one]", "values": [
      {"measurement": "Emax", "value": 126, "unit": "%"},
      {"measurement": "EC50", "value": 1070, "unit": "nM"}
    ]}
  ]
}
